Consider three substances from US8859728B2, “Peptides that target dorsal root ganglion neurons” (Baylor College of Medicine, priority 2008, dated 2014).

Where no end group is shown, it is not given here.

For assay [1], the system named is DRG neurons. In words: In vivo binding of GST-peptide-fusion proteins to DRG neurons after subarachnoid injection. The arrangement: species or system mouse. To be noted: L5 DRG; for NF-L-positive neurons positive for GST fusion protein: 5 μg into subarachnoid space, C57BL/6 mice, 1 h; for mean diameter of cells positive for GST fusion protein: in vivo, mean±SD. From the text: To evaluate their binding to DRG cells in vivo, GST fusion proteins of three selected peptides were synthesized using the pGEX4T-1 vector kit (Amersham, Piscataway, N.J.) according to the manufacturer's instructions. Briefly, oligonucleotides for C-DRG1-C, C-DRG2-C, and C-DRG3-C were synthesized cloned into the pGEX4T-1 vector, and transformed in E. coli. The synthesized GST-fusion proteins were pull down by Glutathione Sepharose 4B (Amersham), and purified. The purities and reactions to anti-GST antibodies (Amersham) were confirmed by gel-electrophoresis stained by Coomassie Blue and anti-GST immunoblotting.
Under intraperitoneal pentobarbiturate anesthesia (0.1 mg/g BW), 10 μl (500 μg/ml) of purified GST-fusion proteins (GST-DRG1, GST-DRG2, GST-DRG3, or GST alone) were injected into the subarachnoid space of 8-week-old female C57BL/6 mice (n=3 each). After 1 h, the mice were sacrificed and transcardially perfused with cold saline followed by 4% paraformaldehyde, 0.5% glutaraldehyde and 0.3% picric acid in 0.1 M PBS (pH 7.4). The L5 DRGs were then isolated and cut sectioned (10 μm) for fluorescence immunohistochemistry. After blocking with 10% horse serum, the sections were incubated overnight at 4° C. with goat anti-GST antibody (Amersham) diluted 1:1000 and rabbit anti-neurofilament L (NF-L, non-phosphorylated form, Chemicon, Temecula, Calif.) antibody diluted 1:100 in PBST. The sections were incubated for 1 h with Alexa Fluor 488-labeled anti-goat IgG and Alexa Fluor 555-labeled anti-rabbit IgG (Molecular Probes, Eugene, Oreg.) at room temperature, mounted with VECTASHIELD mounting medium containing 4′,6-diamidino-2-phenylindole (DAPI) (Vector Laboratories Inc., Burlingame, Calif.), and observed under a fluorescence microscope (Axioplan 2 imaging and Axiocam, Carl Zeiss, Jena, Germany). For quantitative analysis, the inventors took pictures of randomly selected fields and measured diameters (long and short) of the cells positive for GST, NF-L and DAPI. The mean cell size was calculated as the mean of the long and short diameters, and cell-size differences were evaluated in the three different groups.

Assay [2] concerns isolated DRG neurons. In words: Double staining of isolated DRG neurons after incubation with DRG-p1 and GST-DRG3. The class given is cell-based, mouse. Conditions: antibodies against phage and GST. An excerpt:
The Ph.D.-C7C Phage display Peptide Library kit expresses random 7-amino acid peptides fused to the minor coat protein (pIII) of the M13 phage. By sequence analysis, only 113 phage plaques were represented in the bound peptide, consistent with a very efficient selection process (Table 2). The final binding studies allowed identification of three phages (DRG1, DRG2, or DRG3) that occurred repeatedly. In specific embodiments of the invention, the efficient identification of these clones was the result of multiple rounds of positive and negative selection using the biopanning protocol (Liang et al., 2006), although in specific cases some of the other 84 clones (Table 2) are true DRG-binding peptide-phages. […] Moreover, the size specificity of target neurons for individual peptides was confirmed by in vivo binding experiments: GST-DRG1 and GST-DRG3 recognized small-sized neurons, and GST-DRG2 recognized large-sized neurons. Since both DRG1 and DRG3 recognized small sized neurons, two peptide ligands might bind to the same cell populations. Therefore, double staining was performed of isolated DRG neurons after the incubation with DRG-p1 and GST-DRG3 by antibodies against phage and GST, respectively. Double positive staining was obtained in 51% of DRG-p1-positive neurons, and was in 71% of GST-DRG3-positive neurons, respectively. […]

Consider “GST-DRG1: GST fusion protein of peptide C-DRG1-C made with pGEX4T-1 in E. coli (CSPGARAFC; cysteine pairing not given here; also: GST fusion protein, GST not in chain)”, for which, in assay [1], the “NF-L-positive neurons positive for GST fusion protein” value (from here on “NF-L-positive neurons positive”) stood at 39% and the “mean diameter of cells positive for GST fusion protein” value (“mean diameter of cells positive” for short) came out at 21.6±5.2 μm.

Consider “GST-DRG3: GST fusion protein of peptide C-DRG3-C made with pGEX4T-1 in E. coli (CFGQKASSC; cysteine pairing not given here; also: GST fusion protein, GST not in chain)”, for which, in assay [1], the “NF-L-positive neurons positive” value is given as 14% and the “mean diameter of cells positive” value is 22.7±6.6 μm. Also, the “double positive staining (DRG-p1 and GST-DRG3) as share of neurons positive for the named ligand” value in assay [2] is recorded as 71%.

For the substance “GST-DRG2: GST fusion protein of peptide C-DRG2-C made with pGEX4T-1 in E. coli (CDGPWRKMC; cysteine pairing not given here; also: GST fusion protein, GST not in chain)”, in assay [1], the “NF-L-positive neurons positive” value was found to be 25% and the “mean diameter of cells positive” value was found to be 33.5±7.4 μm.
